Experiment: in vitro
Details: human, hela cells, % viability

Question: Which viability at 28.5 h, 10 µM does the source give for COc1ccc(NC(=O)c2cc3nc(C)ccc3o2)cc1 [CBK287663] here?
Answer: 102%

Question: For Cc1cc(C)c2c(CC(=O)NCCCN3CCOCC3)coc2c1 [CBK268307], which viability at 28.5 h, 10 µM is on record?
Answer: 96.8%

Question: With CCOc1cc(/C=C/c2ccc3cccc(O)c3n2)cc(Br)c1O [CBK264451] as the compound, how does the viability at 28.5 h, 10 µM read?
Answer: 95%

Question: With CCCN1CCN(c2ncnc3sc(C4COc5ccccc5O4)cc23)CC1 (stereo not drawn) [CBK269396] as the compound, how does the viability at 28.5 h, 10 µM read?
Answer: 98.1%

Question: With CCn1nc(C)c(C(C)NC(=O)CC(C)n2nc(C)cc2C)c1C (stereo not drawn) [CBK281533] as the compound, how does the viability at 28.5 h, 10 µM read?
Answer: 78.9%

Question: For C=CCn1c2cc(C)sc2c2cnn(CCC(C)=O)c(=O)c21 [CBK282868], which viability at 28.5 h, 10 µM is on record?
Answer: 95.7%

Question: Which viability at 28.5 h, 10 µM does the source give for Cc1csc2c(C3CCN(C(=O)c4cscn4)CC3)nc(C)n12 [CBK285246] here?
Answer: 80.2%

Question: For CN1CCC[C@H]1c1nc(-c2ccc(-n3ccnc3)nc2)no1 [CBK288893], which viability at 28.5 h, 10 µM is on record?
Answer: 96.6%

Question: With COc1ccccc1CCCN1CCC(C(=O)NC(=O)Nc2ccccc2)CC1 [CBK034865] as the compound, how does the viability at 28.5 h, 10 µM read?
Answer: 89.7%

Question: With CN1C2CCC1CC(OC(c1ccccc1)c1ccccc1)C2 (stereo not drawn) [CBK011710G] as the compound, how does the viability at 28.5 h, 10 µM read?
Answer: 99.6%

Question: Which viability at 28.5 h, 10 µM does the source give for CC(C)(CNC(=O)c1ccc(=O)n(CC(=O)NC2CCCCC2)c1)c1ccc(F)cc1 [CBK285984] here?
Answer: 83.9%

Question: With Cc1ccc(CN(CC2CCOC2)C2CC(C)(C)NC(C)(C)C2)o1 (stereo not drawn) [CBK283174] as the compound, how does the viability at 28.5 h, 10 µM read?
Answer: 92.6%

Question: With COc1ccc(-c2onc(C)c2-c2cnn(-c3ccccc3)c2)c(O)c1 [CBK296095] as the compound, how does the viability at 28.5 h, 10 µM read?
Answer: 116%

Question: Which viability at 28.5 h, 10 µM does the source give for CCOC(=O)C1(C2CCCCC2)CCN(C(=O)/C=C/c2ccc3c(c2)OCO3)CC1 [CBK136924] here?
Answer: 92.8%

Question: Which viability at 28.5 h, 10 µM does the source give for COc1ccc2cc(/C=C(\C#N)c3nc(-c4cc5c(ccc6ccccc65)oc4=O)cs3)c(Cl)nc2c1 [CBK261636] here?
Answer: 94%

Question: For CCC(=O)N1CC[C@H]2NC(=O)c3ccccc3OCC/C=C/C[C@H]2C1 [CBK291999], which viability at 28.5 h, 10 µM is on record?
Answer: 91.3%

Question: For CC(C)[C@H](CO)n1c(=O)[nH]c2ncc(-c3ccc(OC(F)(F)F)cc3)nc21 [CBK065037], which viability at 28.5 h, 10 µM is on record?
Answer: 105%

Question: Which viability at 28.5 h, 10 µM does the source give for Cn1c(SCC(=O)Nc2cccc(C(=O)O)c2)nnc1-c1ccccc1 [CBK300479] here?
Answer: 96.1%

Question: Which viability at 28.5 h, 10 µM does the source give for Cc1n[nH]c(C)c1CCC(=O)N/N=C\c1cccc(Oc2ccccc2)c1 [CBK263384] here?
Answer: 98.8%

Question: For Nc1cc(O)nc(SCCN2CCN(c3ccc(C(F)(F)F)cc3[N+](=O)[O-])CC2)n1 [CBK265225], which viability at 28.5 h, 10 µM is on record?
Answer: 88.5%

Question: For NC1=C(c2nc3ccccc3s2)C(=O)CN1CCCN1CCOCC1 [CBK265925], which viability at 28.5 h, 10 µM is on record?
Answer: 109%

Question: For COc1ccc(-c2nn(CN3CCC(C(N)=O)CC3)c(=S)n2-c2ccccc2)cc1OC [CBK264299], which viability at 28.5 h, 10 µM is on record?
Answer: 91.8%

Question: With O=c1c2ccccc2nc(SCc2cccc3nsnc23)n1-c1ccccc1 [CBK266076] as the compound, how does the viability at 28.5 h, 10 µM read?
Answer: 82.1%

Question: Which viability at 28.5 h, 10 µM does the source give for COc1cccc(C2SCC(=O)Nc3[nH]nc(C)c32)c1 (stereo not drawn) [CBK287981] here?
Answer: 78.2%

Question: With Cc1cccc(OCCn2cncc2-c2cnn(C)c2)c1C [CBK281497] as the compound, how does the viability at 28.5 h, 10 µM read?
Answer: 99.5%

Question: For CCCNc1cncc(-c2cccc(O)c2)n1 [CBK065447], which viability at 28.5 h, 10 µM is on record?
Answer: 109%

Question: Which viability at 28.5 h, 10 µM does the source give for O=C(CCN1C(=O)C2C3CCC(C3)C2C1=O)OCC(=O)c1ccc(Cl)c([N+](=O)[O-])c1 (stereo not drawn) [CBK264124] here?
Answer: 95.2%

Question: For COc1ccc(S(=O)(=O)Nc2ccc(C)cc2)cc1C(=O)Nc1ccc(C)cc1 [CBK265172], which viability at 28.5 h, 10 µM is on record?
Answer: 94.7%

Question: With CC(C)[C@H](CO)Nc1nccnc1-c1ccncc1 [CBK089030] as the compound, how does the viability at 28.5 h, 10 µM read?
Answer: 91.9%

Question: For O=C(NC(N1CCCCC1)C(Cl)(Cl)Cl)NC(N1CCCCC1)C(Cl)(Cl)Cl (stereo not drawn) [CBK261020], which viability at 28.5 h, 10 µM is on record?
Answer: 98.2%

Question: Which viability at 28.5 h, 10 µM does the source give for COc1cc2c(cc1NC(=O)C/C(C)=N/NC(=O)c1ccoc1C)oc1ccccc12 [CBK262953] here?
Answer: 112%

Question: For CC(C)Nc1cncc(OCCN2CCOCC2)n1 [CBK115599], which viability at 28.5 h, 10 µM is on record?
Answer: 109%

Question: With Cc1nc2ccc(C(=O)NC3=NC(=O)CS3)cn2c1N(C)Cc1cccs1 [CBK146110] as the compound, how does the viability at 28.5 h, 10 µM read?
Answer: 86.3%

Question: For Cc1ccc2[nH]c([C@H]3CCN(C(=O)NC(C)C)C3)nc2c1 [CBK289375], which viability at 28.5 h, 10 µM is on record?
Answer: 90.8%

Question: Which viability at 28.5 h, 10 µM does the source give for COc1ccc(-c2ccccc2NC(=O)c2cccc(CN3CCCC3=O)c2)cc1 [CBK285865] here?
Answer: 91.4%

Question: With CN(C)c1cccc(C(=O)Nc2nc3ccc(S(N)(=O)=O)cc3s2)c1 [CBK287602] as the compound, how does the viability at 28.5 h, 10 µM read?
Answer: 95.8%

Question: For O=P(O)(CCc1ccccc1)CN1CCCCC1 [CBK262318], which viability at 28.5 h, 10 µM is on record?
Answer: 78.6%

Question: Which viability at 28.5 h, 10 µM does the source give for COc1ccc(CCN2CN=C(SCc3ccc(Cl)cc3)NC2)cc1OC [CBK074665C] here?
Answer: 95.3%

Question: For CN1CCc2c(sc3ncn4nc(-c5ccncc5)nc4c23)C1 [CBK288540], which viability at 28.5 h, 10 µM is on record?
Answer: 96.2%

Question: Which viability at 28.5 h, 10 µM does the source give for CC(=O)N1Cc2ccccc2OC2(CCCN(C(=O)C3CC3)C2)C1 (stereo not drawn) [CBK284991] here?
Answer: 97.1%

Question: Which viability at 28.5 h, 10 µM does the source give for COc1ccc(Cl)cc1S(=O)(=O)N1CCC(C(=O)NCc2cccnc2)CC1 [CBK269878] here?
Answer: 93.4%

Question: Which viability at 28.5 h, 10 µM does the source give for CCN(CC1CCN(c2ccccn2)CC1)C(=O)C1(C#N)CCCC1 [CBK304096] here?
Answer: 98.7%

Question: Which viability at 28.5 h, 10 µM does the source give for CCNC(=O)Nc1ccc(-c2ccc(S(C)(=O)=O)cc2)c2ccccc12 [CBK083728] here?
Answer: 88.1%

Question: For Cc1cccc(C)c1OCC(=O)N1CCC(c2cc(C(=O)NC(C)C)c3ccccc3n2)C1 (stereo not drawn) [CBK285916], which viability at 28.5 h, 10 µM is on record?
Answer: 112%

Question: With COC(=O)c1ccc(OCc2nnn[nH]2)cc1 [CBK269544] as the compound, how does the viability at 28.5 h, 10 µM read?
Answer: 88.7%

Question: Which viability at 28.5 h, 10 µM does the source give for O=S(=O)(NCCNc1ncc(C(F)(F)F)cc1Cl)C(F)(F)F [CBK008366] here?
Answer: 109%

Question: Which viability at 28.5 h, 10 µM does the source give for CC(NC(=O)CCc1ccncc1)C1CC2CCC1C2 (stereo not drawn) [CBK282090] here?
Answer: 99.8%

Question: Which viability at 28.5 h, 10 µM does the source give for CS(=O)(=O)NCC(=O)N1CCC2(CCCCOc3ccccc3C(=O)NCCNC2=O)CC1 [CBK292123] here?
Answer: 112%

Question: With COc1cccc(C2(NC(=O)CCn3nc(C)cc3C)CCCC2)c1 [CBK283749] as the compound, how does the viability at 28.5 h, 10 µM read?
Answer: 90.7%

Question: For CCCSc1nnc(NC(=O)c2nc(SC)ncc2Cl)s1 [CBK268759], which viability at 28.5 h, 10 µM is on record?
Answer: 95.2%

Question: For CC(NC(=O)C1CC(=O)N(c2cccc(F)c2)C1)C1CC2CCC1C2 (stereo not drawn) [CBK281664], which viability at 28.5 h, 10 µM is on record?
Answer: 99.9%

Question: Which viability at 28.5 h, 10 µM does the source give for Cc1nn(C)cc1-c1cncn1C(C)c1ccc2c(c1)CCCO2 (stereo not drawn) [CBK281798] here?
Answer: 100%

Question: For Cn1ccnc1C(NC(=O)Cc1ccc(O)cc1)c1ccccc1 (stereo not drawn) [CBK283723], which viability at 28.5 h, 10 µM is on record?
Answer: 87.9%

Question: With Cc1ccc(-c2nnc(N3CCN(C(=O)CSc4nc[nH]n4)CC3)c3ccccc23)cc1 [CBK266652] as the compound, how does the viability at 28.5 h, 10 µM read?
Answer: 107%

Question: With NS(=O)(=O)c1ccc(Nc2nc(-c3cccs3)cs2)cc1 [CBK262502] as the compound, how does the viability at 28.5 h, 10 µM read?
Answer: 96.2%

Question: For Cc1c(CN2CCC3(CC2)CC(c2ccccc2)CN(C)C3)cnn1C (stereo not drawn) [CBK306666], which viability at 28.5 h, 10 µM is on record?
Answer: 105%

Question: With NCCSC1CC(=O)N(Cc2cccs2)C1=O (stereo not drawn) [CBK269047C] as the compound, how does the viability at 28.5 h, 10 µM read?
Answer: 92.3%

Question: With N#Cc1ccc(CNC(=O)N2CCCC(CO)C2)cc1 (stereo not drawn) [CBK156043] as the compound, how does the viability at 28.5 h, 10 µM read?
Answer: 94.3%

Question: For O=C(CN1C(=O)N2CCN=C2c2ccccc21)NC1CC1 [CBK283958], which viability at 28.5 h, 10 µM is on record?
Answer: 93.1%

Question: With CC(C)c1noc(N2CCC(Oc3ccc(-c4ccc(S(C)(=O)=O)cc4)cn3)CC2)n1 [CBK158821] as the compound, how does the viability at 28.5 h, 10 µM read?
Answer: 84.6%

Question: With CC(=O)CSc1nnc(-c2ccc(F)cc2)o1 [CBK068327] as the compound, how does the viability at 28.5 h, 10 µM read?
Answer: 110%

Question: With Cc1nc(C)n(CC2CCCN(Cc3ccccc3C#N)C2)n1 (stereo not drawn) [CBK305085] as the compound, how does the viability at 28.5 h, 10 µM read?
Answer: 98.4%

Same assay, conditions: human, hela cells, % viability, bulk resorufin, single well

Question: Which viability at 28.5 h, 10 µM does the source give for O=C(N[C@@H]1C[C@H]1c1ccccc1)N1CCC2(CC1)OCc1cc(F)ccc1O2 [CBK060724] here?
Answer: 82.1%

— article PMC12040169 (PLOS Biology, 2025)
